# Experimental data as given in PubChem BioAssay (NCI).
#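 A five-concentration, 48-hour dose response in 96-well plates underlies each endpoint, interpolated linearly between surrounding concentrations. GI50: concentration for 50% inhibition of growth. TGI: total growth inhibition.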
# How the values were obtained:
# Assay in all cases: NCI anticancer screen, dose series, 48 h
# MALME-3M melanoma = test system: MALME-3M melanoma
# SK-OV-3 ovarian = test system: SK-OV-3 ovarian
# CAKI-1 renal = test system: CAKI-1 renal
# HOP-62 NSCLC = test system: HOP-62 NSCLC
# MDA-MB-231 breast = test system: MDA-MB-231 breast
# MDA-MB-435 = test system: MDA-MB-435
# UACC-62 melanoma = test system: UACC-62 melanoma
# RPMI-8226 leukemia = test system: RPMI-8226 leukemia
# SNB-19 CNS = test system: SNB-19 CNS
# MDA-N = test system: MDA-N
SMILES,GI50 (MALME-3M melanoma) [µM],TGI (MALME-3M melanoma) [µM],GI50 (SK-OV-3 ovarian) [µM],TGI (SK-OV-3 ovarian) [µM],GI50 (CAKI-1 renal) [µM],TGI (CAKI-1 renal) [µM],GI50 (HOP-62 NSCLC) [µM],TGI (HOP-62 NSCLC) [µM],GI50 (MDA-MB-231 breast) [µM],TGI (MDA-MB-231 breast) [µM],GI50 (MDA-MB-435) [µM],TGI (MDA-MB-435) [µM],GI50 (UACC-62 melanoma) [µM],TGI (UACC-62 melanoma) [µM],GI50 (RPMI-8226 leukemia) [µM],TGI (RPMI-8226 leukemia) [µM],GI50 (SNB-19 CNS) [µM],TGI (SNB-19 CNS) [µM],TGI (MDA-N) [µM]
CC1(O)COCCCCOc2c(CN)cccc2NC(=O)c2nc(cnc2N)-c2ccc(cc2)S(=O)(=O)C(C)(C)C1 (stereo unspecified),1.77,3.43,1.37,2.8,1.22,2.53,1.26,3.17,1.37,2.82,1.35,2.72,1.86,3.36,1.2,3.5,1.33,2.74,–
Cc1c2cc[n+](C)cc2c(C)c2c1oc1ccccc12,–,3.99,–,57.8,–,98.3,–,11.2,–,35.2,–,21.5,–,16.5,–,30.1,–,4.27,23.8
COc1ccc2c(c1)/C(=C\c1c(Cl)n(-c3ccccc3)c3ccccc13)C(=O)N2,–,19.3,–,> 100,–,56.7,–,33.6,–,> 100,–,–,–,32.6,–,45.4,–,22.1,–
O=C(NC(Cc1ccc(I)cc1)C(=O)O)c1ccc(Cl)cc1 (stereo unspecified),–,> 100,–,> 100,–,> 100,–,> 100,–,–,–,–,–,> 100,–,> 100,–,> 100,–
CO/N=C(\C)c1cccc(Nc2nc3ccccc3c3occc23)c1,–,29.7,–,27.1,–,25.4,–,28.7,–,22.8,–,25.4,–,2.18,–,40.8,–,31,28.5
CC1C(=O)C(C)C(c2ccco2)N(N=O)C1c1ccco1 (stereo unspecified),–,> 100,–,> 100,–,> 100,–,> 100,–,–,–,–,–,> 100,–,> 100,–,> 100,–
CSc1ccc(/C=C2\N=C(c3ccccc3)N(/N=C3\C(=O)Nc4ccccc43)C2=O)cc1,–,> 100,–,> 100,–,> 100,–,> 100,–,> 100,–,> 100,–,> 100,–,–,–,> 100,> 100
COC(=O)c1ccccc1C1=C([N+](=O)[O-])C(c2cccc(Br)c2)C(C#N)=C(N)O1 (stereo unspecified),–,–,–,> 100,–,–,–,> 100,–,> 100,–,57.4,–,42.7,–,> 100,–,> 100,> 100
CCO[C@]12CCC[C@H]1[C@@H]1C(=O)c3ccccc3C(=O)C1=C(C)O2,–,> 100,–,> 100,–,> 100,–,> 100,–,> 100,–,> 100,–,> 100,–,> 100,–,> 100,43
O=C1OC2(OC2c2ccc(Cl)cc2)c2ccccc21 (stereo unspecified),–,> 100,–,> 100,–,> 100,–,41.6,–,–,–,–,–,> 100,–,> 100,–,> 100,–
COc1cc([N+](=O)[O-])ccc1NC(=O)c1cccc([N+](=O)[O-])c1O,–,63.5,–,77.9,–,48.8,–,> 100,–,–,–,–,–,> 100,–,61.9,–,> 100,–
CCSc1nc(-c2cccs2)nc2ccc(I)cc12,–,–,–,–,–,> 100,–,> 100,–,–,–,> 100,–,> 100,–,> 100,–,> 100,> 100
CCCCCCCN(CCCCCCC)CC(O)c1cc2ccccc2c2cc(Br)ccc12 (stereo unspecified),–,40.7,–,> 100,–,> 100,–,> 100,–,> 100,–,> 100,–,> 100,–,> 100,–,> 100,> 100
CCc1ccc2c(c1)C(=O)c1c-2n(CCCN)c(=O)c2cc([N+](=O)[O-])ccc12,1.42,2.8,–,–,1.55,3.11,1.37,2.78,1.53,2.98,1.56,3,1.48,2.83,–,–,1.17,2.42,–
Oc1ccc(-c2nc3cc(F)ccc3s2)cc1,–,43.3,–,50.7,–,43.9,–,63,–,–,–,43.1,–,36.4,–,60.5,–,> 100,79.4
c1ccc([P+](c2ccccc2)(c2ccccc2)c2ccc(-c3ccc([P+](c4ccccc4)(c4ccccc4)c4ccccc4)cc3)cc2)cc1,–,89.9,–,> 100,–,> 100,–,> 100,–,63.5,–,84.5,–,> 100,–,> 100,–,> 100,92.6
